Results on 2 compounds are retold here after patent US20130280259A1, “USE OF ANTIBODIES AGAINST NK1, NK2 AND/OR NK3 RECEPTORS IN CANCER TREATMENT” (SERVICIO ANDALUZ DE SALUD, priority 2010, published 2013).

For assay [1], the system named is human polymorphonuclear blood cells. Briefly: Immunohistochemistry of TGF-beta and NF-kB in polymorphonuclear blood cells. The assay is classed as cell-based. To be noted: incubated with PHF; Substance P (1 μM) alone; 48 hours. From the text: (§1) Heparinised blood from healthy donors was centrifuged, separating the different components thereof. Red blood cells remain in the bottom of the tube. Above them, there is a small whitish layer formed by white blood cells and above, in the upper part of the tube, blood plasma. The white blood cell layer was distributed in a culture plate of 24 wells, adding to each of them the same concentration of blood plasma supplemented with 1% of antibiotics-antimicotics (Invitrogen). About 1000 cells (PHF) from the skin dermis, obtained as described above, were added to each well.
(§2) To assess immunostaining, six serial sections were made of each block placed over slides for performing the immunohistochemistry technique for each marker. Therefore, the immunohistochemical assay was performed six times for each marker in each case. In each of the six sections, cell count was performed in 20 fields of high magnification (400×) using a microscope of Olympus brand (model CX31). In each field, the total cell number and the number of cells with immunostaining were counted, subsequently measuring the percentage of cells with this immunostaining. […]
(§3) The modification of the peritumoural microenvironment by treatment with anti-NK1, NK2 and/or NK3 antibodies has also been analysed determining the involvement of mononuclear and polymorphonuclear blood cells in this tumoural microenvironment. […]

Assay [2] deals with human mononuclear blood cells. Briefly: Immunohistochemistry of TGF-beta and NF-kB in mononuclear blood cells. The assay is classed as cell-based. Conditions: incubated with PHF; Substance P (1 μM) alone; 48 hours.
Excerpt: as §1, §2, §3

In assay [3] the test system is primary human fibroblasts (PHF). Briefly: Immunohistochemistry of tumour microenvironment markers in primary human fibroblasts. The assay is classed as cell-based. As to the method: A sample of each of the cultures of the cell lines was centrifuged (5 minutes at 1,500 rpm) and the pellet obtained was dehydrated by treatment at growing concentrations of ethanol and finally in xylol. Then these dehydrated samples were included in paraffin creating a block of cells. These paraffin blocks were cut in a microtome at a thickness of 5 micra and deparaffinised by sinking in xylol, to be subsequently hydrated through a number of solutions containing decreasing concentrations of ethanol and be finally sank in water. Then, these samples were subject to treatment in a pressure cooker in citrate buffer 10× at pH 6.0, to obtain a higher exposure of antigens. Subsequently, the samples were cooled at room temperature for 10 minutes. The endogenous peroxidase activity was blocked with 3% hydrogen peroxide for 30 minutes at room temperature. After washing the samples with 0.05 M of Tris buffer, they were incubated with swine non-immune serum at 10% for 30 minutes at room temperature. […]
PHF were obtained and purified from samples obtained from the skin dermis as described in De Bari et al. (De Bari et al., 2001). In brief, small pieces of skin dermis were digested in a hyaluronidase solution (Sigma-Aldrich, St. Louis, Mo., US) at a concentration of 1 mg/mL for 15 minutes at 37° C. and subsequently treated with 6 mg/mL of type IV collagenase (Invitrogen) for 2 hours at 37° C. Then the cells were washed, resuspended in DMEM culture medium with a high concentration of glucose (Dulbecco's Modified Eagle's Medium, Invitrogen) supplemented with 1% of antibiotics-antimicotics (Invitrogen) and with 1% of sodium pyruvate (Invitrogen), and sown in 6-well culture plaques at a concentration of 10,000 cells per square centimetre. When the cells reached confluence, the adherent cells were separated using 0.5% sterile trypsin (Invitrogen) and were used between runs 3 and 9. For stimulation of substance P and exposure to anti-NK1, anti-NK2 and anti-NK3 antibodies, PHF were sown in 24-well plaques at a concentration of 25,000 cells per well.
For the purpose of analysing the expression of these cell markers in PHF cultures in the presence of the NK1, NK2 and NK3 receptor agonist and in the presence of anti-NK1, NK2 or NK3 antibodies, these cells were cultured in the presence of substance P (NK1, NK2 and NK3 receptor agonist) at a concentration of 1 μM (product no. S6883; Sigma-Aldrich). In other wells and simultaneously these cells were cultured with substance P at the same concentration and simultaneously together with anti-NK1, anti-NK2 or anti-NK3 antibodies (Sigma-Aldrich) at a 1/100 concentration. After 48 hours of culture, the cells were recollected and cell blocks were built for immunohistochemistry assays, as explained in example 1. In the immunohistochemistry assays, the expression of the following markers was assayed: TGF-alpha (SAB4502953), TGF-beta 1 (SAB4502954), TGF-beta 2 (SAB4502956), TGF-beta 3 (SAB4502957), SPARC(HPA002989) MMP-3 (HPA007875); MMP-7 (SAB4501894), MMP-9 (SAB4501896), MMP-11 (SAB4501898), MMP-13 (SAB4501900) and MMP-14 (SAB4501901), by specific antibodies against them. For performing these immunohistochemistry assays, all antibodies were mouse polyclonal antibodies obtained from Sigma Aldrich, used at a 1/1000 concentration. The immunohistochemistry techniques were performed as described in Example 1. The results are summarised in Table 2, that gives the type of marker and the mean percentage of cells with immunostaining for this marker.
To assess immunostaining, six serial sections were made of each block placed over slides for performing the immunohistochemistry technique for each marker. Therefore, the immunohistochemical assay was performed six times for each marker in each case. In each of the six sections, cell count was performed in 20 fields of high magnification (400×) using a microscope of Olympus brand (model CX31). […]

Assay [4] concerns advanced pancreatic cancer, advanced gastric cancer, glioblastoma, breast cancer. Conditions: breast cancer after first-line chemotherapy (Procc ASCO 1999-2002); cited from earlier work.
The mark [5] stands for this setting: PHF, Substance P (1 μM) alone, 48 hours.

In the case of Substance P, in assay [1], the “Percentage of polymorphonuclear cells with expression for NF-kB” value was 17.5% and the “Percentage of polymorphonuclear cells with expression for TGF-beta” value was 36.8%. Moreover, in assay [2], the “Percentage of mononuclear cells with expression for NF-kB” value was 25.7% and the “Percentage of mononuclear cells with expression for TGF-beta” value is 16.4%. For the same compound, the “Immunostaining for the markers tested (TGF-alpha, TGF-beta 1-3, SPARC, MMPs)” value in assay [3] (PHF cell cultures treated only with substance P) is given as “presence of all markers tested”. For the same compound, in assay [3] (setting [5]), the “Percentage of cells with expression for MMP-3” value is 33.9%, the “Percentage of cells with expression for MMP-7” value is 46.2%, the “Percentage of cells with expression for MMP-9” value is listed as 35.5% and the “Percentage of cells with expression for MMP-11” value is reported as 7.8%. For the same compound, in assay [3] (setting [5]), the “Percentage of cells with expression for MMP-13” value is recorded as 17.1%, the “Percentage of cells with expression for MMP-14” value is recorded as 47.3%, the “Percentage of cells with expression for SPARC” value amounted to 16% and the “Percentage of cells with expression for TGF-alpha” value is 16.5%. In assay [3] (setting [5]), the “Percentage of cells with expression for TGF-beta 1” value turned out to be 18.4%, the “Percentage of cells with expression for TGF-beta 2” value was 24.6% and the “Percentage of cells with expression for TGF-beta 3” value stood at 23.1%.

As to `CNC(=O)[C@@H](NC(=O)[C@H](CC(C)C)[C@H](O)C(=O)NO)C(C)(C)C` [Marimastat], the “Efficacy for the treatment of cancer” value in assay [4] was “effective”.
